Experimental data published in patent US20100311718A1, “Treatment of Psychoses with Dibenzothiazepine Antipsychotic” (AstraZeneca AB, priority 2004, published 2010).
Where a name gives a salt, the structure may show the parent alone. Read-outs that look alike come from different tables or passages of the source. Marks after values point to notes of the source that are not given here.

What was measured:
[1] = test system: patients with bipolar depression; details: monotherapeutic agent; cited from earlier work
[2] = test system: patients with bipolar depression; details: 8 week trial; difference not statistically significant; cited from earlier work
[3] = test system: patients with bipolar depression; details: 7-week trial, patients who completed the study; cited from earlier work
[4] = test system: patients with bipolar depression
Excerpt: Criteria for Emergent Mania (any one of the following): AE (Adverse Event) or SAE
(Serious Adverse Event) of Mania. Withdrawal for AE of mania. YMRS (Young Mania Rating Scale) ≧16 on 2 consecutive or final assessment.

[5] = test system: patients with bipolar depression; details: for Change in MADRS, Mean (SD): Bipolar I
Excerpt: (§1) The treatment was with quetiapine or placebo. There were 43% male and 57% female patients. The demographics also included 67% bipolar I and 33% bipolar II.

[6] = test system: patients with bipolar depression; remark: listed apart in the source
Excerpt: as §1

[7] = test system: patients with bipolar depression; remark: listed apart in the source
Excerpt: as §1

[8] = test system: patients with bipolar depression; remark: listed apart in the source
Excerpt: as §1

[9] = test system: patients with bipolar depression; details: for Improvement in mean HAM-A score: endpoint (Week 8), P<0.05 vs placebo
Excerpt: as §1

[10] = test system: patients with bipolar depression; details: both doses, p<0.001
[11] = test system: patients with bipolar depression; remark: listed apart in the source
Excerpt: as §1

[12] = treatment of bipolar depression
[13] = OC (completer) population, 300 mg/day
[14] = OC (completer) population, 600 mg/day

In the case of `O=C([O-])[O-].[Li+].[Li+]` [Lithium carbonate], the “Patients with bipolar depression in whom monotherapy is effective” value [1] is listed as “approximately 50%”.
In the case of `CCCC(CCC)C(=O)O` [divalproex], the “Percentage of patients with a 50% reduction in HAM-D scores without mania” value [2] is listed as “numerical improvement over placebo”.
For `Nc1nnc(-c2cccc(Cl)c2Cl)c(N)n1` [lamotrigine], the “HAM-D and MADRS scores” value [3] is listed as “produced improvement in HAM-D and MADRS scores”.
With `OCCOCCN1CCN(C2=Nc3ccccc3Sc3ccccc32)CC1` [quetiapine, 2-[2-(4-dibenzo [b,f] 1,4]thiazepin-11-yl-1-piperazinyl)ethoxy]-ethanol fumarate] the “Treatment-emergent mania, number of patients” value ([4]; 300 mg) was 6, the “Treatment-emergent mania, percent of patients” value ([4]; 300 mg) was 3.5% and the “Treatment-emergent mania, number of patients” value ([4]; 600 mg) was 4. The “Treatment-emergent mania, percent of patients” value ([4]; 600 mg) was 2.4%, the “Association with treatment-emergent mania (switching)” value [4, 12] was “not associated with treatment-emergent mania” and the MADRS effect size ([5]; Bipolar I & II) was 0.6. The “Change in MADRS, Mean (SD)” value ([5]; ITT population, 300 mg/day) was −17.1 (9.7), the “Change in MADRS, Mean (SD)” value ([5]; ITT population, 600 mg/day) was −18.2 (11.0) and the “MADRS Change” value ([5]; ITT population, 300 mg/day) was −16.5. The “MADRS Change” value ([5]; ITT population, 600 mg/day) was −16.8, the “MADRS Change” value [5, 13] was −18.6 and the “MADRS Change” value [5, 14] was −20.3. The “Efficacy against depressive symptoms (MADRS and HAM-D)” value ([5]; both doses, p<0.001) was “Efficacy against depressive symptoms in both doses from Day 8 on”, the “Advantage over placebo, MADRS Responder analysis” value ([5]; in vivo) was 20% and the “Advantage over placebo, remission analysis” value ([5]; in vivo) was 20%. For the same molecule, the “HAM-D Change” value ([6]; ITT population, 300 mg/day) was −13.4, the “HAM-D Change” value ([6]; ITT population, 600 mg/day) was −13.9 and the “HAM-D Change” value [6, 13] was −15.0. For the same molecule, the “HAM-D Change” value [6, 14] was −17.0, the “Q-LES-Q change (Δ), Mean (SD)” value ([7]; Week 4, 300 mg) was 8.6 (9.6)^a and the “Q-LES-Q change (Δ), Mean (SD)” value ([7]; Week 4, 600 mg) was 11.0 (10.7)*. For the same molecule, the “Q-LES-Q change (Δ), Mean (SD)” value ([7]; Week 8, 300 mg) was 11.7 (10.4)^a, the “Q-LES-Q change (Δ), Mean (SD)” value ([7]; Week 8, 600 mg) was 16.3 (10.3)* and the “Q-LES-Q change (Δ), Mean (SD)” value ([7]; Week 8 LOCF, 600 mg) was 12.2 (11.6)*. For the same molecule, the “PSQI change (Δ), Mean (SD)” value ([8]; Week 4, 300 mg) was −4.7 (4.2)*, the “PSQI change (Δ), Mean (SD)” value ([8]; Week 4, 600 mg) was −5.3 (4.9)* and the “PSQI change (Δ), Mean (SD)” value ([8]; Week 8, 300 mg) was −5.3 (4.3)*. For the same molecule, the “PSQI change (Δ), Mean (SD)” value ([8]; Week 8, 600 mg) was −6.4 (4.3)*, the “PSQI change (Δ), Mean (SD)” value ([8]; Week 8 LOCF, 300 mg) was −5.1 (4.3)* and the “Sleep component: Sleep disturbance, Mean (SD)” value ([8]; Week 8 LOCF, 300 mg) was 1.1 (0.6). The “Sleep component: Sleep duration, Mean (SD)” value ([8]; Week 8 LOCF, 300 mg) was 0.7 (0.8), the “Sleep component: Sleep dysfunction, Mean (SD)” value ([8]; Week 8 LOCF, 300 mg) was 1.3 (0.9) and the “Sleep component: Sleep latency, Mean (SD)” value ([8]; Week 8 LOCF, 300 mg) was 1.3 (1.0). For the same molecule, the “Sleep component: Sleep medication, Mean (SD)” value ([8]; Week 8 LOCF, 300 mg) was 0.4 (0.9), the “Sleep component: Sleep quality, Mean (SD)” value ([8]; Week 8 LOCF, 300 mg) was 1.0 (0.8) and the “PSQI change (Δ), Mean (SD)” value ([8]; Week 8 LOCF, 600 mg) was −5.5 (4.8)*. For the same molecule, the “Sleep component: Sleep disturbance, Mean (SD)” value ([8]; Week 8 LOCF, 600 mg) was 1.2 (0.7), the “Sleep component: Sleep duration, Mean (SD)” value ([8]; Week 8 LOCF, 600 mg) was 0.5 (0.8) and the “Sleep component: Sleep dysfunction, Mean (SD)” value ([8]; Week 8 LOCF, 600 mg) was 1.4 (0.9). The “Sleep component: Sleep latency, Mean (SD)” value ([8]; Week 8 LOCF, 600 mg) was 1.3 (1.1), the “Sleep component: Sleep medication, Mean (SD)” value ([8]; Week 8 LOCF, 600 mg) was 0.4 (0.9) and the “Sleep component: Sleep quality, Mean (SD)” value ([8]; Week 8 LOCF, 600 mg) was 0.8 (0.8). The “Improvement in mean HAM-A score” value ([9]; about 300 mg/day) was −8.6, the “Improvement in mean HAM-A score” value ([9]; about 600 mg/day) was −8.7 and the “Efficacy in anxiety symptoms (HAM-A)” value ([9]; both doses, p<0.01) was “Efficacy in anxiety symptoms (HAM-A) in both doses from Day 8 on”. The “Clinical Improvement (CGI)” value [10] was “Clinical Improvement (CGI) in both doses from Day 8 on”, the Adverse event trends ([11]; in vivo) was “No unexpected AE trends” and the Changes in weight ([11]; in vivo) was “Small dose related changes in weight”. The Tolerability [11, 12] was “well-tolerated in the treatment of bipolar depression with a low incidence of EPS (extrapyramidal symptoms), prolactin, sexual dysfunction and weight gain”.
